Test results published in patent US11020462B2, “Methods for treatment of diseases” (SERPIN PHARMA, LLC, priority 2015, dated 2021).
Where “and” joins values, the source holds several entries; their conditions need not be identical. Equal entries are not always repeated. Entries after “also recorded” stand apart in the source; their conditions may differ. Where two headings read alike, the source gives them in different places.

Experiments:
LRP1 = target: T1, LRP1 (Mus musculus, UniProt Q91ZX7); assay: experimental AMI in mice pretreated with LRP1 blocking antibody; format: in vivo; conditions: LRP1 antibody clone 5A6 3 mg/kg 16 hours before surgery; SP163M 100 μg or AAT 60 mg/kg i.p. after reperfusion, FIG. 14
T1 construct: from tissue; host or cells: living CD1 mice (heart, in vivo)
Procedure: To examine the whether LRP1 mediates the cardioprotective effect of SP163M, groups of mice were treated with an LRP1 blocking antibody prior to experimental AMI. The resulting infarct size and LV systolic function were measured
Adult out-bred male CD1 mice (10 weeks of age) supplied by Harlan Sprague Dawley (Indianapolis, Ind.) were used in this study. A single operator (S.T.) skilled in coronary artery surgical ligation in mice performed all surgeries. Experimental AMI was induced by transient coronary artery ligation of the left anterior descending coronary artery for 30 minutes to induce ischemia of the anterior wall and the apex (visible as pallor) followed by reperfusion, and leading to an infarct involving approximately 15% of the left ventricle. […]
Infarct size (reported in FIG. 14A) was measured as previously described. […] The infarcted tissue (appearing white) and the viable tissue (bright red) were measured by computer morphometry using Image Pro Plus 6.0 software (Media Cybernetics, Silver Spring, Md.). […]
LV systolic function (reported in FIG. 14B) was determined as well. […] We measured the left ventricular (LV) end-diastolic and end-systolic areas at B-Mode and the LV end-diastolic diameter (LVEDD), LV end-systolic diameters (LVESD) at M-Mode. LV fractional shortening (FS) and LV ejection fraction (EF) were calculated. […]

[1] = system: experimental acute myocardial infarction (AMI) in the mouse; conditions: AAT at onset of ischemia or at time of reperfusion, cited from earlier work
[2] = system: inflammatory reaction that occurs after AMI; conditions: pilot clinical study; cited from earlier work
recombinant LRP1 protein = target: T2, recombinant LRP1 protein (Homo sapiens, UniProt Q07954); assay: in vitro binding of biotin-peptide to recombinant LRP1 (streptavidin bead pull-down, western blot)
T2 construct: purchased R&D Systems, Minneapolis, Minn
Procedure: An in vitro assay was performed to examine SP163M binding to LRP1. To perform the assay, recombinant LRP1 protein (1 μg/ml) (R&D Systems, Minneapolis, Minn.) was incubated on ice in the presence of biotin-SP163M (1-5 μg/ml) at 4° C. for 1 hour. This mixture was then incubated with 1 mg/ml M280 Streptavidin Dynabeads (Invitrogen, Carlsbad, Calif.) for 1.5 hours at 4° C. Dynabeads were washed in PBS+0.1% Tween20 and boiled in SDS loading buffer for 5 minutes. The supernatants were separated on NuPAGE 4-12% Bis-Tris gels (Invitrogen) and transferred to nitrocellulose membranes. The membranes were probed with anti-LRP1 (LRP-1 Cluster II Affinity Purified Polyclonal Ab, R&D, Minneapolis, Minn.) and incubated overnight at 4° C. The membranes were then washed 3 times with TBS-T and incubated with secondary HRP-coupled anti-goat diluted 1:10,000 in 5% milk TBS-T. The western blots were visualized by chemiluminescence using SuperSignal West Femto Maximum Sensitivity Substrate kit (ThermoScientific) and a Bio Rad Molecular Imager ChemiDoc XRS system (Bio-Rad, Hercules, Calif.).

TNF-alpha = assay: LPS challenged mouse model of sepsis, TNF-alpha levels; format: in vivo
Excerpt: Specifically, in these particular fragments, the three most N-terminal and the two most C-terminal amino acids appear to play a role in the anti-inflammatory properties of the peptides as replacement of them appeared to reduce the capacity of the peptides to reduce TNF-alpha levels in a LPS challenged mouse model of sepsis (see, e.g., PCT/US13/20498; which is incorporated by reference herein in its entirety). Accordingly, in some aspects of all embodiments of the invention the peptides are selected from SP40, SP43, SP46, and SP49 the peptide sequences of which are set forth in Table B.
Table C below presents additional exemplary peptides that were used to reduce TNF-alpha levels in mice subjected to an LPS challenge. Also the peptides with capacity to reduce TNF-alpha levels as described in PCT/US13/20498; which is incorporated by reference herein in its entirety, are contemplated for the compositions, pharmaceutical compositions and methods of use and treatment of inflammatory conditions in the present invention.

hERG = target: T3, hERG (Homo sapiens, UniProt Q12809); assay: cell-based; format: cell-based
T3 construct: Apredica, Boston, Mass; (contract laboratory that ran the study)

[3] = SP16 pharmacokinetic profile after intravenous injection (LC/MS/MS of plasma); format: in vivo, rats
Procedure: The following table provides the results from an assay for SP16's pharmacokinetic profile. In performing the assay, three normal rats were injected intravenously with 5 mg/kg SP16 and the plasma concentration of SP16 established at 8 time points following the injection. […] The assay was executed by Apredica, Boston, Mass.

healthy mouse = assay: cardiac contractility in the healthy mouse (echocardiography, isoproterenol challenge); format: in vivo; conditions: FIG. 7
Procedure: To test the effect of SP163M on heart contractility the following study was conducted. […] SP34 is a peptide with a scrambled sequence of SP16 and is used as a control peptide.
Ten-weeks-old ICR mice were treated with SP163M (100 μg/mouse i.p.), the control peptide SP34 (100 μg/mouse) or the vehicle solution. Echocardiography was used to assess left ventricular (LV) fractional shortening at baseline and after 180 minutes.
Cardiac contractility reserve was tested with isoproterenol challenge (10 ng/kg i.p.), measuring the increase in LV fractional shortening within 5′ of treatment. Each group included at least 6 mice.

111 human receptors = assay: human receptor panning, GenSEP Explorer panel of 111 in vitro assay targets; conditions: 111 targets
Excerpt: In addition, we also performed a profile using human receptor panning. The GenSEP Explorer panel contains 111 in vitro assay targets carefully selected to assess drug/chemical biological activities. Assay categories include GPCRs, Voltage-Gated Ion Channels, Ligand-Gated Ion Channels, Neurotransmitter transporters, Nuclear Receptors and Steroids as well as a diverse set of biochemical targets including phosphodiesterases, kinases and other relevant enzymes.

[4] = rat, in vivo, SP16, IV (5 mg/kg), normal rats

T2 sequence (Q07954 with tags, fused parts or gaps limits assumed, species assumed): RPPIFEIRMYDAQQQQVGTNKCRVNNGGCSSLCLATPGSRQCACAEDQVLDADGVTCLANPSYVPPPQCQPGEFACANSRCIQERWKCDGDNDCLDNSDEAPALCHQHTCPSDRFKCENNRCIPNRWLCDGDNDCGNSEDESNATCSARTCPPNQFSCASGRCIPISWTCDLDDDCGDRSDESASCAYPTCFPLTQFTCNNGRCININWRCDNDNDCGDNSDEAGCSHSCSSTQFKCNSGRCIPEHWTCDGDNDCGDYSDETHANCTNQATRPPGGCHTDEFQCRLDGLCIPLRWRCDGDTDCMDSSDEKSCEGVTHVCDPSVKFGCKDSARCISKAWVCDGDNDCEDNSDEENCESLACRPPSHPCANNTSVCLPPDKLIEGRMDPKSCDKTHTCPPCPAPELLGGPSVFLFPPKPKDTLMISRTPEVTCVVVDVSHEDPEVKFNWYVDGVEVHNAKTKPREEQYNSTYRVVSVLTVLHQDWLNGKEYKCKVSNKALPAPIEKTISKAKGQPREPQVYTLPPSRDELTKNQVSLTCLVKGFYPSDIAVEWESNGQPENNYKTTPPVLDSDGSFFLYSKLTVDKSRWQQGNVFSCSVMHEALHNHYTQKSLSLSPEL
T3 sequence (Q12809 whole entry): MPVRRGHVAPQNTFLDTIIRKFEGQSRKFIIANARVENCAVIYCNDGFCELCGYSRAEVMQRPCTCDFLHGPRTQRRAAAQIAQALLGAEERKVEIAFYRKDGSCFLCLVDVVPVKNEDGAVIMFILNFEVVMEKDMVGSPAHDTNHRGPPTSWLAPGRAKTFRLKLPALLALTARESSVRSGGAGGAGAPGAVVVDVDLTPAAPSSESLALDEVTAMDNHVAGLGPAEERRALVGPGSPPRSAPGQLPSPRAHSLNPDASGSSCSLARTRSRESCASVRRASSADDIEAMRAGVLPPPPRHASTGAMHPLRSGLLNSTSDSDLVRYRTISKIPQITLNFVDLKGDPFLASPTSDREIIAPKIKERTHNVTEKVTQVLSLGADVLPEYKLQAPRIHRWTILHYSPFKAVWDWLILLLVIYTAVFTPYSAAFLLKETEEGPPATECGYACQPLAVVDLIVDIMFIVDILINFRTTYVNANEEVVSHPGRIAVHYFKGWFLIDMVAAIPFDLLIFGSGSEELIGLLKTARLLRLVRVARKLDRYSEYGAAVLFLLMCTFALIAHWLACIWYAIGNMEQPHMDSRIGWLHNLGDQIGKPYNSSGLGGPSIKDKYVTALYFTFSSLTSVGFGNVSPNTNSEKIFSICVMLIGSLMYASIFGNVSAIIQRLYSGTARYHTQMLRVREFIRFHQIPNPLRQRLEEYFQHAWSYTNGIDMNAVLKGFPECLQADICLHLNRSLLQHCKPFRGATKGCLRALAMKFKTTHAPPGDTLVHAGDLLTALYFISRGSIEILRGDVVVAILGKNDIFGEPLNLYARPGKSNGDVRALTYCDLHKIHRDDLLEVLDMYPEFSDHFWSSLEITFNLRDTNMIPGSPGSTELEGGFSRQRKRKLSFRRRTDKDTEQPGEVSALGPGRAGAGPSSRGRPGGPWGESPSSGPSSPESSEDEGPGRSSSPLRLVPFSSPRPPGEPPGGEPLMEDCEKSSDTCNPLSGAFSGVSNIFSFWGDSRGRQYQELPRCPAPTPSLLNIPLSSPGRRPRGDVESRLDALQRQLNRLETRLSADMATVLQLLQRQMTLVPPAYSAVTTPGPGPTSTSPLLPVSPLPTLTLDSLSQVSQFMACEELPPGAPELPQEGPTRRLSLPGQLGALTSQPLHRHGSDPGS

AAT: plasma derived alpha-1 antitrypsin (AAT) (Aralast N P, Baxter); circulating serum protein, parent of SP16
protective effects (infarct size, LV systolic function) after LRP1 blocking antibody (LRP1): eliminates the cardioprotective effects; also recorded: eliminated the protective effects | infarct size ([1]; vs albumin, FIG. 3): significantly smaller infarct size; also recorded: reduces infarct size | cardiac healing and remodeling [1]: more favorable cardiac healing and remodeling | safety and efficacy in blocking the inflammatory reaction after AMI [2]: preliminary safety and efficacy

V K F N K P F V F L M I E Q A A A (VKFNKPFVFLMIEQAAA; listed as Homo sapiens) [SP51]
binding to LRP1 (statement without method) (recombinant LRP1 protein): bind LRP1

V K F A A A F V F L M I E Q N T K (VKFAAAFVFLMIEQNTK; listed as Homo sapiens) [SP40]
binding to LRP1 (statement without method) (recombinant LRP1 protein): bind LRP1 | anti-inflammatory effect (TNF-alpha): particularly good anti-inflammatory effect

V K F N K P A A A L M I E Q N T K (VKFNKPAAALMIEQNTK; listed as Homo sapiens) [SP43]
anti-inflammatory effect (TNF-alpha): particularly good anti-inflammatory effect

V K F N K P F V F A A A E Q N T K (VKFNKPFVFAAAEQNTK; listed as Homo sapiens) [SP46]
anti-inflammatory effect (TNF-alpha): particularly good anti-inflammatory effect

CC[C@H](C)[C@H](NC(=O)[C@H](CCSC)NC(=O)[C@H](CC(C)C)NC(=O)[C@H](Cc1ccccc1)NC(=O)[C@@H](NC(=O)[C@H](Cc1ccccc1)NC(=O)[C@@H]1CCCN1C(=O)[C@H](CCCCN)NC(=O)[C@H](CC(N)=O)NC(=O)[C@H](Cc1ccccc1)NC(=O)[C@H](CCCCN)NC(=O)[C@@H](N)C(C)C)C(C)C)C(=O)N[C@@H](CCC(=O)O)C(=O)N[C@@H](CCC(N)=O)C(=O)N[C@@H](CC(N)=O)C(=O)N[C@H](C(=O)N[C@@H](CCCCN)C(=O)O)[C@@H](C)O [SP16]
IC50 (hERG): > 25 µM | comment: concentration-dependent inhibition of hERG observed or not (hERG; 0.008-25 μM): No concentration-dependent | activity at 0.008 µM (hERG; hERG, 0.008 μM): 89% | activity at 0.04 µM (hERG; hERG, 0.04 μM): 95% | activity at 0.2 µM (hERG; hERG, 0.2 μM): 95% | activity at 1 µM (hERG; hERG, 1 μM): 78% | activity at 5 µM (hERG; hERG, 5 μM): 88% | activity at 25 µM (hERG; hERG, 25 μM): 89% | inhibition of hERG (in words) (hERG; up to 25 μM): does not impact hERG activity; also recorded: does not inhibit hERG | Last Time point ([3]; SP16, IV (5 mg/kg), normal rats): 8.0 | Cmax ([3]; rat, in vivo, iv, 5 mg/kg intravenously, three normal rats): 2500 ng/mL | half-life ([3]; rat, in vivo, iv, 5 mg/kg intravenously, three normal rats, read-out: T1/2 (half-life) (converted)): 1.9 h | C0 [3, 4]: 2500 ng/mL | MRT inf [3, 4]: 1.1 h | AUC ([3]; rat, in vivo, SP16, IV (5 mg/kg), normal rats, read-out: AUC to Last): 900 ng·h/mL | clearance ([3]; rat, in vivo, SP16, IV (5 mg/kg), normal rats, read-out: Total CL (converted)): 2.33 mL/min and 9.7 mL/min/kg | Vd ([3]; rat, in vivo, SP16, IV (5 mg/kg), normal rats, read-out: Vss): 0.149 L | Vd ([3]; rat, plasma, SP16, IV (5 mg/kg), normal rats, read-out: V): 0.374 L | heart contractility (healthy mouse): does not affect heart contractility | effect on the human receptor panel (in words) (111 human receptors): not able to identify any hits; also recorded: no effect on 111 human receptors

A A A N K P F V F L M I E Q N T K (AAANKPFVFLMIEQNTK; listed as Homo sapiens) [SP37]
binding to LRP1 (statement without method) (recombinant LRP1 protein): bind LRP1

V K F N K P F V F L M I A A A T K (VKFNKPFVFLMIAAATK; listed as Homo sapiens) [SP49]
anti-inflammatory effect (TNF-alpha): particularly good anti-inflammatory effect
